According to BindingDB's records for doi:10.1016/j.bmc.2007.01.010 (Abbott Laboratories, 2007):
pIC50: −log10 of the molar value.

Target: T1, RAC-alpha serine/threonine-protein kinase [139-480,S378A,S381A,T450D,S473D] (Homo sapiens, UniProt P31749, S378A/S381A/S473D/T450D)
T1 construct: 139-480
Experiment: Akt Kinase Assay
Settings: pH 7.5; 22 °C
Protocol: The kinase assay uses His-Akt1 and a biotinylated peptide as substrate. The biotinylated peptides were immobilized on streptavidin-coated FLASH plates. After reaction, the 33P-phosphopeptide captured on the FLASH plates was measured with a TopCount Packard Instruments […] (Packard Instruments, Boston, MA).

T1 sequence (P31749 139-480 S378A/S381A/T450D/S473D): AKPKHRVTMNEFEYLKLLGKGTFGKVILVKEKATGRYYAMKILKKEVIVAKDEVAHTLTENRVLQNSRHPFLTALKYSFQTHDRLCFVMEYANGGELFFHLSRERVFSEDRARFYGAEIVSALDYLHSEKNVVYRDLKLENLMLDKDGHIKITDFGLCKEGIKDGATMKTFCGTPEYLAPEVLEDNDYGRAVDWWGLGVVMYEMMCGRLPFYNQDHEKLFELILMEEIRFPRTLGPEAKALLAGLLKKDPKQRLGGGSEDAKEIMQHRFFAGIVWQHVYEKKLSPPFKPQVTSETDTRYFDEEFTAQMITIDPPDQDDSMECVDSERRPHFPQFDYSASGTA

pIC50 | SMILES
6.64 | Cn1cccc1-c1n[nH]c2cnc(-c3cncc(OC[C@@H](N)Cc4ccccc4)c3)cc12 [3-[(2S)-2-amino-3-phenylpropoxy]-5-[3-(1-methyl-1H-pyrrol-2-yl)-1H-pyrazolo[3,4-c]pyridin-5-yl]pyridine]
8.21 | N[C@H](COc1cncc(-c2cc3c(-c4ccco4)n[nH]c3cn2)c1)Cc1ccccc1 [3-[(2S)-2-amino-3-phenylpropoxy]-5-[3-(furan-2-yl)-1H-pyrazolo[3,4-c]pyridin-5-yl]pyridine]
6.65 | N[C@H](COc1cncc(-c2cc3cn[nH]c3cn2)c1)Cc1ccccc1 [3-[(2S)-2-amino-3-phenylpropoxy]-5-{1H-pyrazolo[3,4-c]pyridin-5-yl}pyridine]
7.23 | N[C@H](COc1cncc(-c2cc3c(Cl)n[nH]c3cn2)c1)Cc1ccccc1 [3-[(2S)-2-amino-3-phenylpropoxy]-5-{3-chloro-1H-pyrazolo[3,4-c]pyridin-5-yl}pyridine]
7.89 | C=Cc1n[nH]c2cnc(-c3cncc(OC[C@@H](N)Cc4ccccc4)c3)cc12 [3-[(2S)-2-amino-3-phenylpropoxy]-5-{3-ethenyl-1H-pyrazolo[3,4-c]pyridin-5-yl}pyridine]
7.60 | Cc1n[nH]c2cnc(-c3cncc(OC[C@@H](N)Cc4ccccc4)c3)cc12 [3-[(2S)-2-amino-3-phenylpropoxy]-5-{3-methyl-1H-pyrazolo[3,4-c]pyridin-5-yl}pyridine]
8.08 | N[C@H](COc1cncc(-c2cc3c(-c4ccccc4)n[nH]c3cn2)c1)Cc1ccccc1 [3-[(2S)-2-amino-3-phenylpropoxy]-5-{3-phenyl-1H-pyrazolo[3,4-c]pyridin-5-yl}pyridine]
8.74 | N[C@H](COc1cncc(-c2ccc3[nH]nc(C(F)(F)F)c3c2)c1)Cc1c[nH]c2ccccc12 [5-{5-[(2S)-2-amino-3-(1H-indol-3-yl)propoxy]pyridin-3-yl}-3-(trifluoromethyl)-1H-indazole]
6.98 | Cc1n[nH]c2c[n+]([O-])c(-c3cncc(OC[C@@H](N)Cc4ccccc4)c3)cc12 [5-{5-[(2S)-2-amino-3-phenylpropoxy]pyridin-3-yl}-3-methyl-6-oxido-1H-pyrazolo[3,4-c]pyridin-6-ium]

SMILES | pIC50
N[C@H](COc1cncc(-c2cc3cn[nH]c3cn2)c1)Cc1c[nH]c2ccccc12 [3-[(2S)-2-amino-3-[(5-{1H-pyrazolo[3,4-c]pyridin-5-yl}pyridin-3-yl)oxy]propyl]-1H-indole] | 9.22
Nc1cc2[nH]ncc2cc1-c1cncc(OC[C@@H](N)Cc2c[nH]c3ccccc23)c1 [5-{5-[(2S)-2-amino-3-(1H-indol-3-yl)propoxy]pyridin-3-yl}-1H-indazol-6-amine] | 7.29
N[C@H](COc1cncc(-c2ccc3[nH]ncc3c2)c1)Cc1c[nH]c2ccccc12 [5-{5-[(2S)-2-amino-3-(1H-indol-3-yl)propoxy]pyridin-3-yl}-1H-indazole] | 8.82
Nc1cc2[nH]nc(Cl)c2cc1-c1cncc(OC[C@@H](N)Cc2c[nH]c3ccccc23)c1 [5-{5-[(2S)-2-amino-3-(1H-indol-3-yl)propoxy]pyridin-3-yl}-3-chloro-1H-indazol-6-amine] | 8.15
N[C@H](COc1cncc(-c2ccc3[nH]nc(Cl)c3c2)c1)Cc1c[nH]c2ccccc12 [5-{5-[(2S)-2-amino-3-(1H-indol-3-yl)propoxy]pyridin-3-yl}-3-chloro-1H-indazole] | 9.00
N[C@H](COc1cncc(-c2cc3cn[nH]c3cc2[N+](=O)[O-])c1)Cc1c[nH]c2ccccc12 [5-{5-[(2S)-2-amino-3-(1H-indol-3-yl)propoxy]pyridin-3-yl}-6-nitro-1H-indazole] | 6.02
Cc1n[nH]c2cnc(-c3cncc(OC[C@@H](N)Cc4c[nH]c5ccccc45)c3)cc12 [pyrazolopyridine analog, 9g] | 9.47
